pIC50: −log10 of the molar value.
Key:
[1] = biological target: Hepatocyte growth factor receptor (Homo sapiens, UniProt P08581); assay: Inhibition of recombinant MET
[2] = biological target: ALK tyrosine kinase receptor (Homo sapiens, UniProt Q9UM73); assay: Inhibition of 6xHis-tagged human NPM-ALK expressed in insect cells
Insulin receptor = Insulin receptor (Homo sapiens, UniProt P06213); assay: Inhibition of human recombinant IRK
[3] = biological target: Insulin-like growth factor 1 receptor (Homo sapiens, UniProt P08069); assay: Inhibition of recombinant IGFR1
[4] = biological target: Tyrosine-protein kinase JAK2 (Homo sapiens, UniProt O60674); assay: Inhibition of recombinant JAK2

Hepatocyte growth factor receptor, sequence (P08581 whole entry): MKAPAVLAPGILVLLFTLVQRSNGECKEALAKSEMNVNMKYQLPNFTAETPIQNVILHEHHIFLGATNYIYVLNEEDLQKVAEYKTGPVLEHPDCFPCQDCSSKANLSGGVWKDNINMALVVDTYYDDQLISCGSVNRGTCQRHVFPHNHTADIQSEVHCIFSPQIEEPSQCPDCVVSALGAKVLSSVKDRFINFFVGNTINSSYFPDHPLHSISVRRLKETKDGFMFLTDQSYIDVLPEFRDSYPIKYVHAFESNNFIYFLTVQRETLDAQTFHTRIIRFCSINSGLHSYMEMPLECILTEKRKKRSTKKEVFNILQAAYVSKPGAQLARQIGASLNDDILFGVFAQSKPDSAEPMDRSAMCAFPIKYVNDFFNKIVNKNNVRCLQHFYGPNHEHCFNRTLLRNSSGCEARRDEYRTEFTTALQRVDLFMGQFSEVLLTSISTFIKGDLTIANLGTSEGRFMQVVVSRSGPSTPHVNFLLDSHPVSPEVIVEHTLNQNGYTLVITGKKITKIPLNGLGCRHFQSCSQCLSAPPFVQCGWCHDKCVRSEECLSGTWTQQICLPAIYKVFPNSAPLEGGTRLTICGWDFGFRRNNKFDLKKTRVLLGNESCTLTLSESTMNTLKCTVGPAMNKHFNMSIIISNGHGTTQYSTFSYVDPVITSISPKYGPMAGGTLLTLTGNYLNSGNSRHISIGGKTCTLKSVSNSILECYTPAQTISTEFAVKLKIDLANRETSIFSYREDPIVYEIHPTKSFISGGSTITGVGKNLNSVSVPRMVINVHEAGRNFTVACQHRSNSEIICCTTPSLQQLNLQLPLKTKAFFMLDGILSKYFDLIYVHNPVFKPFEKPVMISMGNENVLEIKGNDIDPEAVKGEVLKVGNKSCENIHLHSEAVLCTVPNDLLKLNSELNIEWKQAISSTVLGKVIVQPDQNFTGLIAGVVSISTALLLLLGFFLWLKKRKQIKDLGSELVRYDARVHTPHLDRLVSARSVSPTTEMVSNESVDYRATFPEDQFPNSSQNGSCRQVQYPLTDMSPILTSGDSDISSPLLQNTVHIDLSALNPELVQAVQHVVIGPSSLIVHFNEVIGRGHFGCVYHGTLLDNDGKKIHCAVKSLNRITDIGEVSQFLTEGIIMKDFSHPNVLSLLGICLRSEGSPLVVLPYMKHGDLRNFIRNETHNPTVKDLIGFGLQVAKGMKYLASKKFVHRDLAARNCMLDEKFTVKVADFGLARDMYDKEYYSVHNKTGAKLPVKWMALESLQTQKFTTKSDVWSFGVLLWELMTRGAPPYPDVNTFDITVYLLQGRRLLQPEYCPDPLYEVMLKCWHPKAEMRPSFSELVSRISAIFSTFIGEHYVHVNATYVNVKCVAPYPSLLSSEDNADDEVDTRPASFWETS
Insulin receptor, sequence (P06213 28-758 limits assumed): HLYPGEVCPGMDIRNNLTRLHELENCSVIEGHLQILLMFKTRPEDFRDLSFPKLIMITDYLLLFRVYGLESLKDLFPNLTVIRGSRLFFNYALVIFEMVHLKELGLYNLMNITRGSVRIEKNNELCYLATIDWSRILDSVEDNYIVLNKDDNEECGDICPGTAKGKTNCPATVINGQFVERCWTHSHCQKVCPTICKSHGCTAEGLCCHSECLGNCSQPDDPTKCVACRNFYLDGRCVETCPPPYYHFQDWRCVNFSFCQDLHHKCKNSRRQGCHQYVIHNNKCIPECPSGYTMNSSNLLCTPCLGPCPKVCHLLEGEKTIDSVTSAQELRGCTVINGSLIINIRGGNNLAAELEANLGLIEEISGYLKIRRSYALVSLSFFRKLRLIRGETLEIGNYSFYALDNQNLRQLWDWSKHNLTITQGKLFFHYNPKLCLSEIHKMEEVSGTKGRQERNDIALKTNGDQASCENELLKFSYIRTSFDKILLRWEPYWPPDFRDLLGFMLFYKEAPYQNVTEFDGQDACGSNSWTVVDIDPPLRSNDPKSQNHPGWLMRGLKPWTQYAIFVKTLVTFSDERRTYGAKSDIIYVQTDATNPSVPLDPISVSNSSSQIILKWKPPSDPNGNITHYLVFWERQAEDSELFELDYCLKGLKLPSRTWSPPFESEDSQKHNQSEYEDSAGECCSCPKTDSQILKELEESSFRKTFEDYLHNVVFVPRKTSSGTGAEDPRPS
Insulin receptor, sequence (P06213 763-1382 limits assumed): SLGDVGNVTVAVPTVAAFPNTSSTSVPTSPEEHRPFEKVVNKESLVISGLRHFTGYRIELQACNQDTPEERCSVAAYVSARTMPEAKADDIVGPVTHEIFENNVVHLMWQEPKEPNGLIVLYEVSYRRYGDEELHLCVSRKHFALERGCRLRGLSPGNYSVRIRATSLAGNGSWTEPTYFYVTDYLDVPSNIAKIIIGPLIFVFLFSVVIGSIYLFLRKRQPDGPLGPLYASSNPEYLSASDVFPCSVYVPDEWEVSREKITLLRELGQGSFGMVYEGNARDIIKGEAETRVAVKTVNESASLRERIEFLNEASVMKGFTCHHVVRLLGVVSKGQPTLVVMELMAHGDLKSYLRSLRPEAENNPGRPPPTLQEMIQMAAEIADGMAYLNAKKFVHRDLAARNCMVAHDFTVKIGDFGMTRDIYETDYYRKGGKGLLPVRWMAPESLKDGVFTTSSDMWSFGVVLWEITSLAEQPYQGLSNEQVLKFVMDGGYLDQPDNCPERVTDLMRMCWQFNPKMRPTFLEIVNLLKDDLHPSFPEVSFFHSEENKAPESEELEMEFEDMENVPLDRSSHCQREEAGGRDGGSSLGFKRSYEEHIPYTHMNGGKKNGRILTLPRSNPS
ALK tyrosine kinase receptor, sequence (Q9UM73 19-1620 limits assumed): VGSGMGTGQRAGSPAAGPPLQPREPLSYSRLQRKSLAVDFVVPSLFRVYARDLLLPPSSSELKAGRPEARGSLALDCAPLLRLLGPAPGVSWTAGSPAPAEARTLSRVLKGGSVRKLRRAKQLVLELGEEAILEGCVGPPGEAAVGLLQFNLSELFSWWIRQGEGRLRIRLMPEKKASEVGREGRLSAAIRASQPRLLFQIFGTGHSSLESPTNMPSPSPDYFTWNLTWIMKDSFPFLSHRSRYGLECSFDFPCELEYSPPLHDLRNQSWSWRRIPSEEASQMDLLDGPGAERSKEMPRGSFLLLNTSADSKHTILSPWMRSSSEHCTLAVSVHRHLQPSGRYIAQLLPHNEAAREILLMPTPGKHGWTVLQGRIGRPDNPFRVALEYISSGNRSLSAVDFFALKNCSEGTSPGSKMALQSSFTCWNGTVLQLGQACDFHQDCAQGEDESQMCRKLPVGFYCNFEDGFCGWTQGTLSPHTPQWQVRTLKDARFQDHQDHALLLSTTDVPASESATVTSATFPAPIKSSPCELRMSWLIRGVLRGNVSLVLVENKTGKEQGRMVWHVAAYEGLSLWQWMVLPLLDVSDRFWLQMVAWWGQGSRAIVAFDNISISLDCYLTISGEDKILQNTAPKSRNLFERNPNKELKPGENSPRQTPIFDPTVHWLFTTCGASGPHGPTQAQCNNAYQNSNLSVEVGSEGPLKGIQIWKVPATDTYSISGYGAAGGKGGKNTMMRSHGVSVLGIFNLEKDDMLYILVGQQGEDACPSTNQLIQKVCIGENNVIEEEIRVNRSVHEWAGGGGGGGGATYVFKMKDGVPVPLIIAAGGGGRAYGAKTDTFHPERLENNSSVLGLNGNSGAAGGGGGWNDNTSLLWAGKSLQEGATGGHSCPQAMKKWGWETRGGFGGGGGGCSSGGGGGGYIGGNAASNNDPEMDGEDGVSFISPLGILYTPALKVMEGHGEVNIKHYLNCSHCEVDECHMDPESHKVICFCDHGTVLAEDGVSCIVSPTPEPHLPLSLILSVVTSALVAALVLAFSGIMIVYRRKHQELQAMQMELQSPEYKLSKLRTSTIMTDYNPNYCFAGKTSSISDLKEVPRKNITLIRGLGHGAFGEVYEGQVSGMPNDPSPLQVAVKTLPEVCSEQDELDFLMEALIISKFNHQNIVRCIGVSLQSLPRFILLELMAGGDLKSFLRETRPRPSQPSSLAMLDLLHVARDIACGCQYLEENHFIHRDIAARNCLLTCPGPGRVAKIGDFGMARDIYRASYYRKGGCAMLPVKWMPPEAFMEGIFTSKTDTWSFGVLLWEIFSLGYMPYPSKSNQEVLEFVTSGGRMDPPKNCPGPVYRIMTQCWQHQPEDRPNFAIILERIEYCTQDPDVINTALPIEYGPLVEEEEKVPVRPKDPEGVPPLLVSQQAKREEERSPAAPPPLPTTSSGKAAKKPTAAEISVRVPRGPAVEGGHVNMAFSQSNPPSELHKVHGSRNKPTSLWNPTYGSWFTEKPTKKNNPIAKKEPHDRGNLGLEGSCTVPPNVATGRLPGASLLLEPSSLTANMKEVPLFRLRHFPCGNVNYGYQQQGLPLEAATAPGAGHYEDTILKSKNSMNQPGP

Row | Compound | pIC50 [1] | pIC50 [2] | pIC50 (Insulin receptor) | pIC50 [3] | pIC50 [4]
1 | Brc1ccc2[nH]c3c(c2c1)CCN(CC(c1ccccc1)c1ccccc1)c1nccc(I)c1-3 | 5.07 | 5.30 | < 4.40 | – | –
2 | COc1nc(C)cc2c1-c1[nH]c3cc(N4CCN(C)CC4)ccc3c1CCN2CCc1ccccc1 | 5.26 | 5.29 | 5.46 | 5.35 | 5.29
3 | Clc1nccc2c1-c1[nH]c3ccc(Br)cc3c1CCN2CC(c1ccccc1)c1ccccc1 | < 4.40 | < 4.40 | < 4.40 | – | –
4 | C[C@@H](c1ccccc1)N1CCc2c([nH]c3ccc(Br)cc23)-c2c1ccnc2Cl | 4.89 | 5.24 | 4.92 | – | –
5 | Oc1ccc(CCN2CCc3c([nH]c4ccc(Br)cc34)-c3c(I)ccnc32)cc1 | 5.01 | 5.21 | 4.95 | – | –
6 | Cc1cc2c(c(Cl)n1)-c1[nH]c3ccccc3c1CCN2CCc1ccccc1 | 4.58 | 4.67 | 4.52 | 4.61 | 4.47
7 | C[C@@H](c1ccccc1)N1CCc2c([nH]c3ccc(Br)cc23)-c2c(I)ccnc21 | < 4.40 | 5.08 | < 4.40 | – | –
8 | Clc1nccc2c1-c1[nH]c3ccc(Br)cc3c1CCN2CCc1c[nH]c2ccccc12 | < 4.40 | 5.03 | < 4.40 | – | –
9 | Cc1cc(Cl)c2c(n1)N(CCc1ccccc1)CCc1c-2[nH]c2ccccc12 | 4.91 | 4.93 | 4.70 | 4.90 | < 4.40
10 | COc1cc(C)nc2c1-c1[nH]c3ccccc3c1CCN2CCc1ccccc1 | < 4.40 | < 4.40 | < 4.40 | < 4.40 | < 4.40
11 | COc1nc(C)cc2c1-c1[nH]c3ccccc3c1CCN2CCc1ccccc1 | < 4.40 | < 4.40 | < 4.40 | < 4.40 | < 4.40
12 | Cc1cc2c(c(=O)[nH]1)-c1[nH]c3ccccc3c1CCN2CCc1ccccc1 | 4.71 | 4.74 | 4.81 | 4.93 | 4.77
13 | Oc1ccc(CCN2CCc3c([nH]c4ccc(Br)cc34)-c3c2ccnc3Cl)cc1 | 4.90 | 5.15 | < 4.40 | – | –

From ChEMBL document CHEMBL1151875, “Design and synthesis of a novel tyrosine kinase inhibitor template” (Bioorg Med Chem, 2009)
